Where two headings read alike, the source gives them in different places. Each block holds one compound with its values, some of them ahead of it.
Columns and labels:
[1] = system: stem IIa region of the HCV IRES (5′-UTR of HCV RNA); assay: Mass spectrometry based binding assay; details: for binding percentage of ligand to target: Table 1, ligand 50 μM, IIa target 2.5 μM
[2] = Single dose in vivo pharmacokinetic study; set-up: species or system rats; details: plasma, rat, single 3.0 mg/kg IV dose, mean; for AUC: iv, 3 mg/kg
Protocol: A single dose pharmacokinetic study was performed to investigate the pharmacokinetics of representative compounds. Of particular interest was the ability of the compounds to accumulate in liver, which is the target tissue for HCV chemotherapy as it is the primary reservoir of virus. 3-4 rats per group were administered a single dose (3 mg/kg intravenously, IV or 6 mg/kg orally, PO). Blood samples were taken at 0.25, 0.5, 1, 2, 3, 4, 6, and 8 h timepoints, and pharmacokinetic parameters calculated. Both representative compounds were rapidly distributed to tissues, as evidenced by the high clearance rates and volumes of distribution, and low levels of excretion (ca 10% of total drug in urine and feces at 8 h). Major tissues were examined for presence of drug. […] The tissue accumulation for the IV dose is shown in FIG. 1, as a function of concentration and percent of total administered dose.

SMILES: Nc1nc2ccccc2n1CCCN1CCCC1
binding percentage of ligand to target [1]: 15%

SMILES: CCN(CC)CCn1c(N)nc2ccccc21
binding percentage of ligand to target [1]: 15%

SMILES: CN(C)CCn1c(N)nc2ccccc21
binding percentage of ligand to target [1]: 11%

SMILES: Nc1nc2ccccc2n1CCOc1ccccc1
binding percentage of ligand to target [1]: 6%

SMILES: COc1ccc2nc(N)n(CCCN(C)C)c2c1
MS target selectivity ([1]; Table 2): ~10

SMILES: CN(C)CCCOc1ccc2nc(N)[nH]c2c1
MS target selectivity ([1]; Table 3): ~2

MRT [2]: 3.1 h
half-life [2]: 37.5 h
AUC ([2]; read-out: AUC): 311 ng·h/mL
AUC ([2]; read-out: AUC Extrap): 1930 ng·h/mL
SMILES: CN(C)CCCn1c(N)nc2ccc(OCCCN(C)Cc3ccco3)cc21 [IBIS00405678]

MRT [2]: 2 h
half-life [2]: 14 h
AUC ([2]; read-out: AUC): 165 ng·h/mL
AUC ([2]; read-out: AUC Extrap): 320 ng·h/mL
SMILES: CN(C)CC1CNc2nc3ccc(OCCCN(C)Cc4ccccn4)cc3n2C1 (stereo not shown) [IBIS00528637]

SMILES: CN(C)CCCn1c(N)nc2ccccc21 [drawing 73]
binding percentage of ligand to target [1]: 56% binding

SMILES: CN(C)CCCn1c(N)nc2ccccc21 [drawing 78]
MS target selectivity ([1]; Table 2): ~3

SMILES: CN(C)CCCOc1ccc2nc(N)n(CCCN(C)C)c2c1 [drawing 80]
MS target selectivity ([1]; Table 2): ~15

SMILES: CN(C)CCCOc1ccc2nc(N)n(CCCN(C)C)c2c1 [drawing 81]
MS target selectivity ([1]; Table 3): ~15

SMILES: CN(C)CCCn1c(N)nc2ccccc21 [drawing 82]
MS target selectivity ([1]; Table 3): ~3

Reference: patent US7642265B2, “Benzimidazoles and analogs thereof as antivirals” (Isis Pharmaceuticals, Inc., priority 2002, dated 2010)
